# According to patent US10786508B2, “Substituted imidazo[1,5-A]-pyrimidines and their use in the treatment of medical disorders” (Lysosomal Therapeutics Inc., priority 2014, dated 2020):
# Tests used:
# [1] = molecular target: T1, glucocerebrosidase (Gcase) (Homo sapiens, UniProt P04062); assay: Glucocerebrosidase (Gcase) activation assay, 4-methylumbelliferyl-beta-D-glucopyranoside substrate, with saposin C; type: biochemical; conditions: 10 nM GCase, 100 nM saposin C, pH 4.7; for activation at 0.1 µM: read-out: Percent Gease Activation 0.1 μM Test Compound; for activation at 1 µM: read-out: Percent Gease Activation 1 μM Test Compound
# T1 construct: micellar solution containing 10 nM GCase and 100 nM saposin C
# T1 sequence (P04062 40-536): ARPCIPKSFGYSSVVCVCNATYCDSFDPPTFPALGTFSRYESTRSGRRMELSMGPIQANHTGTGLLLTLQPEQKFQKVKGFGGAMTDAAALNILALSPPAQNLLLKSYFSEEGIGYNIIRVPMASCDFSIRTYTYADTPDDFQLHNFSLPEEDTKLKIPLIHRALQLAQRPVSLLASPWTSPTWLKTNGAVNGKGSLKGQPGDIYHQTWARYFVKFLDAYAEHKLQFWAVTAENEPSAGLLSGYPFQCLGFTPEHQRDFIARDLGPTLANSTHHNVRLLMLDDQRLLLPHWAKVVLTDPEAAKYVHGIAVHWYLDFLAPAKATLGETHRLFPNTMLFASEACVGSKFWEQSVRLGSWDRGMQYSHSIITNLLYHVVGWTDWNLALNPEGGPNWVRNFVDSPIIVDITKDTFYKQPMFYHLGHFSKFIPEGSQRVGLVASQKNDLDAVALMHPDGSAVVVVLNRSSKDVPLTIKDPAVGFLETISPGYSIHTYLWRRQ
# Protocol: The ability of exemplary compounds to activate glucocerebrosidase (Gcase) was measured.
# A 484 μL aliquot of a 1.0 mg/mL solution of phosphatidylserine (PS) (Sigma P7769) in chloroform was evaporated under a stream of nitrogen for 1 hour. The lipid film was dissolved over 4 minutes of vigorous vortexing in 40 mL of 176 mM K2HPO4/50 mM citric acid (pH 4.7) containing 7.5 μL of triton X-100, resulting in a mixed micellar preparation with a composition of 0.32 mM triton and 0.37 mol % PS. 4-Methylumbelliferyl-beta-D-glucopyranoside (ACROS-337025000) was dissolved in the micellar solution to a final concentration of 2 mM for use as the reaction substrate.
# Test compounds were diluted to the desired concentrations with dimethylsulfoxide (DMSO) from 10 mM stocks, and 0.41 μL of the DMSO compound mixture was added to 100 μL of micellar solution containing 10 nM GCase and 100 nM saposin C (Enzo ALX-201-262-C050). Pre-incubation was allowed to occur for 30 minutes at room temperature, after which the reaction was initiated by combining 25 μL of substrate solution with 25 μL of compound/GCase/saposin mixture. The reaction proceeded for 15 minutes at room temperature and was stopped by adding 150 μL of 1M glycine, pH 12.5. The endpoint of the reaction was monitored by measuring fluorescence intensity (excitation: 365 nm; emission: 440 nm) on a SpectraMax i3 instrument (Molecular Devices). Test compounds were screened at 1.0 and 0.1 μM final concentration, and subsequent 8-point dose response curves were obtained using 3-fold dilutions from a maximum final concentration of 5 μM.
# For experiments in which the test compound was used at a concentration of 1.0 μM, the symbol “+” indicates less than 30% Gcase activation; the symbol “++” indicates Gcase activation in the range of 30% up to 60%; and the symbol “+++” indicates Gcase activation greater than 60%. For experiments in which the test compound was used at a concentration of 0.1 μM, the symbol “*” indicates less than 10% Gcase activation; the symbol “**” indicates Gcase activation in the range of 10% up to 20%; and the symbol “***” indicates greater than 20% Gcase activation.
# [2] = Compound solubility in water; type: physicochemical
smiles,measurement,setting,value
Cc1cc(C)n2cnc(C(=O)Nc3ccc(-c4cocn4)cc3)c2n1 [III-3],activation at 0.1 µM,[1]; 0.1 μM test compound,< 10%
same,activation at 1 µM,[1]; 1 μM test compound,30 to 60%
same,solubility,[2],4.8 µg/mL
Cc1cc(C)n2cnc(C(=O)Nc3ccc(-c4ccco4)nc3)c2n1 [III-31],Percent Gease Activation 0.1 μM Test Compound,[1]; 0.1 μM test compound,* (less than 10% Gcase activation)
same,Percent Gease Activation 1 μM Test Compound,[1]; 1 μM test compound,+ (less than 30% Gcase activation)
same,Compound Solubility in Water,[2],<0.01 µg/mL
CCC(NC(=O)c1ncn2c(C)cc(C)nc12)c1cccc(Cl)c1 (centres unmarked) [III-81],activation at 0.1 µM,[1]; 0.1 μM test compound,10 to 20%
same,activation at 1 µM,[1]; 1 μM test compound,> 60%
same,solubility,[2],20.3 µg/mL
Cc1cc(C)n2cnc(C(=O)Nc3ccc4c(c3)OCO4)c2n1 [III-12],activation at 0.1 µM,[1]; 0.1 μM test compound,< 10%
same,activation at 1 µM,[1]; 1 μM test compound,< 30%
same,solubility,[2],3.4 µg/mL
COc1ccc(F)cc1C(C)NC(=O)c1ncn2c(C)cc(C)nc12 (centres unmarked) [III-79],activation at 0.1 µM,[1]; 0.1 μM test compound,< 10%
same,activation at 1 µM,[1]; 1 μM test compound,30 to 60%
same,solubility,[2],32 µg/mL
Cc1cc(C)n2cnc(C(=O)Nc3ccc4c(c3)CCC4)c2n1 [III-22],activation at 0.1 µM,[1]; 0.1 μM test compound,10 to 20%
same,activation at 1 µM,[1]; 1 μM test compound,> 60%
same,solubility,[2],4.7 µg/mL
CCC(NC(=O)c1ncn2c(C)cc(C)nc12)c1ccc(F)cc1 (centres unmarked) [III-78],activation at 0.1 µM,[1]; 0.1 μM test compound,< 10%
same,activation at 1 µM,[1]; 1 μM test compound,30 to 60%
same,solubility,[2],39.5 µg/mL
Cc1cc(C)n2cnc(C(=O)Nc3ccc4cn[nH]c4c3)c2n1 [III-11],activation at 0.1 µM,[1]; 0.1 μM test compound,< 10%
same,activation at 1 µM,[1]; 1 μM test compound,< 30%
same,solubility,[2],0.5 µg/mL
CO[C@H]1CC[C@H](C(C)(C)NC(=O)c2ncn3c(C)cc(C)nc23)CC1 [III-62],activation at 0.1 µM,[1]; 0.1 μM test compound,< 10%
same,activation at 1 µM,[1]; 1 μM test compound,< 30%
same,solubility,[2],27 µg/mL
Cc1cc(C)n2cnc(C(=O)NC3CCc4ccccc43)c2n1 (centres unmarked) [III-68],activation at 0.1 µM,[1]; 0.1 μM test compound,< 10%
same,activation at 1 µM,[1]; 1 μM test compound,< 30%
same,solubility,[2],21 µg/mL
COc1ccccc1[C@H](C)NC(=O)c1ncn2c(C)cc(C)nc12 [III-75],activation at 0.1 µM,[1]; 0.1 μM test compound,< 10%
same,activation at 1 µM,[1]; 1 μM test compound,30 to 60%
same,solubility,[2],22.6 µg/mL
Cc1cc(C)n2cnc(C(=O)Nc3ccc4nc(C)sc4c3)c2n1 [III-21],activation at 0.1 µM,[1]; 0.1 μM test compound,< 10%
same,activation at 1 µM,[1]; 1 μM test compound,< 30%
same,solubility,[2],1.1 µg/mL
Cc1cc(C)n2cnc(C(=O)NC(C)(C)c3cccc(Cl)c3)c2n1 [III-82],activation at 0.1 µM,[1]; 0.1 μM test compound,< 10%
same,activation at 1 µM,[1]; 1 μM test compound,> 60%
same,solubility,[2],14.8 µg/mL
Cc1cc(C)n2cnc(C(=O)Nc3ccc(-c4ccco4)cc3)c2n1 [III-30],activation at 0.1 µM,[1]; 0.1 μM test compound,> 20%
same,activation at 1 µM,[1]; 1 μM test compound,> 60%
same,solubility,[2],0.3 µg/mL
COCc1cc(C2CC2)nc2c(C(=O)NC(C)(C)c3cccc(OC4CC4)c3)ncn12 [III-56],activation at 0.1 µM,[1]; 0.1 μM test compound,10 to 20%
same,activation at 1 µM,[1]; 1 μM test compound,> 60%
same,solubility,[2],14.4 µg/mL
COCc1cc(C(C)C)nc2c(C(=O)NC(C)(C)c3cccc(OC4CC4)c3)ncn12 [III-58],activation at 0.1 µM,[1]; 0.1 μM test compound,10 to 20%
same,activation at 1 µM,[1]; 1 μM test compound,> 60%
same,solubility,[2],28.9 µg/mL
Cc1cc(C)n2cnc(C(=O)N[C@H](C)c3ccc(Cl)cc3)c2n1 [III-83],activation at 0.1 µM,[1]; 0.1 μM test compound,< 10%
same,activation at 1 µM,[1]; 1 μM test compound,30 to 60%
same,solubility,[2],16.5 µg/mL
Cc1cc(C)n2cnc(C(=O)Nc3ccc4c(c3)CCNC4)c2n1 [III-16],activation at 0.1 µM,[1]; 0.1 μM test compound,< 10%
same,activation at 1 µM,[1]; 1 μM test compound,< 30%
same,solubility,[2],29.9 µg/mL
Cc1cc(C)n2cnc(C(=O)Nc3ccc4[nH]c(C)cc4c3)c2n1 [III-7],activation at 0.1 µM,[1]; 0.1 μM test compound,< 10%
same,activation at 1 µM,[1]; 1 μM test compound,< 30%
same,solubility,[2],0.7 µg/mL
C#Cc1ccc(NC(=O)c2ncn3c(C)cc(C)nc23)cc1F [III-49],activation at 0.1 µM,[1]; 0.1 μM test compound,10 to 20%
same,activation at 1 µM,[1]; 1 μM test compound,> 60%
Cc1cc(C)n2cnc(C(=O)Nc3ccc(-c4cscn4)cc3)c2n1 [III-64],activation at 0.1 µM,[1]; 0.1 μM test compound,< 10%
same,activation at 1 µM,[1]; 1 μM test compound,30 to 60%
same,solubility,[2],0.6 µg/mL
Cc1cc(C)n2cnc(C(=O)Nc3cccc4c3CCC4)c2n1 [III-65],activation at 0.1 µM,[1]; 0.1 μM test compound,10 to 20%
same,activation at 1 µM,[1]; 1 μM test compound,> 60%
same,solubility,[2],0.9 µg/mL
